Laboratory results taken from PMC4757823, “μ Opioid receptor: novel antagonists and structural modeling” (Scientific Reports, 2016).

Key:
[1] = tested on: morphine-induced antinociception in mice; assay: Acetic acid-induced writhing test, antagonism of morphine-induced antinociception; format: in vivo, mouse; details: s.c.
human MOR [2] = target: T1, human MOR (Homo sapiens, UniProt P35372); assay: [35S]GTPγS binding assay in CHO-hMOR cell membranes; format: biochemical; details: for stimulation of [35S]GTPγS binding: CHO-hMOR membranes, agonist mode
T1 construct: expressed in transfected cells; host or cells: CHO (Chinese hamster ovary) cells stably expressing human MOR; gift from Dr. Lawrence Toll, SRI International
Experimental: Determination of [^35S]GTPγS binding to CHO-hMOR cell membranes were performed as described previously. Cell membranes (5–10 μg protein), prepared as described for the radioligand MOR binding assay, were incubated in the absence or in the presence of test compound in the assay buffer (20 mM HEPES, 100 mM NaCl, 10 mM MgCl2, pH 7.4) containing [^35S]GTPγS (0.05 nM) and GDP (10 nM) in a total volume of 1.0 mL for 60 min at 25 °C. Nonspecific binding was determined using 10 μM GTPγS, and the basal binding was determined in the absence of test compound. Samples were filtered over glass fiber filters and counted as described for the radioligand binding assays. […] The antagonist equilibrium dissociation constant Ke for 4 was calculated using the equation Ke = [a]/(DR − 1), where “a” is the concentration of antagonist. All experiments were performed in duplicate and repeated at least three times.

human MOR [3] = target: T1, human MOR; assay: Radioligand MOR binding assay ([3H]DAMGO competition, CHO-hMOR membranes); details: for inhibition at 10 µM: read-out: inhibition of [3H]DAMGO binding to the MOR
[4] = tested on: morphine-induced antinociception in mice; assay: Tail-flick test, antagonism of morphine-induced antinociception; format: in vivo, mouse
human MOR [5] = target: T1, human MOR; assay: cAMP accumulation assay (GloSensor) in CHO-hMOR-p22F cells; format: cell-based; details: for inhibition of the forskolin-stimulated cAMP production: CHO-hMOR-p22F cells, agonist mode
Experimental: Inhibition of the forskolin-stimulated intracellular cAMP accumulation in CHO cells co-expressing the hMOR and the cAMP biosensor GloSensor-22F (CHO-hMOR-p22F cells) was performed using the Glo-Sensor^TM cAMP assay (Promega), according to the manufacturer’s instructions. Cells were seeded in growth medium into 384-well plates at a density of 5,000 cells in 30 μL per well and incubated overnight. On the day of assay, culture media was removed, and cells were pre-equilibrated for 90 min with 4% v/v of the GloSensor cAMP reagent in reaction medium (20 mM HEPES, 1 × HBSS, pH 7.4) at 37 °C and 5% CO2. […] Forskolin (10 μM) was added to each well, and luminescence was measured after 20 min. All experiments were performed in triplicate and repeated at least three times.

μ2 receptors = target: μ2 receptors; parameters: method as in PMID 8069669; details: lowering radioligand binding; cited from earlier work
μ1 receptors = target: μ1 receptors; parameters: method as in PMID 8069669; details: lowering radioligand binding; cited from earlier work
mouse tail-flick test = tested on: mouse tail-flick test; parameters: method as in PMID 8069669; details: cited from earlier work
[6] = tested on: μ3 opioid receptor subtype; parameters: method as in PMID 15580165; details: human monocytes; cited from earlier work
MOR = details: concentration of 100 μM; cited from earlier work

T1 sequence (P35372 whole entry): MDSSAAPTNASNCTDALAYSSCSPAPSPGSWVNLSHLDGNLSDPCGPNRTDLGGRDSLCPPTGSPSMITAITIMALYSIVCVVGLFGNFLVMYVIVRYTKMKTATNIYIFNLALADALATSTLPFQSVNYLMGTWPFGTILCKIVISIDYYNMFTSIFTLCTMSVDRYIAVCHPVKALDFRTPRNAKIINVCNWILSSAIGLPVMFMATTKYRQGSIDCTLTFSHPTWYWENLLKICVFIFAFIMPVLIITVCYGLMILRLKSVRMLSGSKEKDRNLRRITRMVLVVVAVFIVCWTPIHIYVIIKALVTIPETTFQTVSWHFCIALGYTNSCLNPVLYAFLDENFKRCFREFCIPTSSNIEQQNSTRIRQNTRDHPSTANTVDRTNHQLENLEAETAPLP

For `COc1cc2c(cc1OC)C(C)N(Cc1cc(C)c(O)c(C)c1)CC2` (stereo not drawn) [Compound 4], the “effect on pain behavior when administered alone (chemical sensitivity)” value ([1]; alone, vs. vehicle) was “did not affect pain behavior”, the “reversal of morphine analgesia in the writhing test” value ([1]; given 30 min prior to s.c. morphine) was “significant and dose-dependent reversal” and the “stimulation of [35S]GTPγS binding” value (human MOR [2]) was “none of the three ligands produced any increase”. For the same compound, the Kb (human MOR [2]; read-out: antagonist equilibrium constant (Ke)) was 1.02 ± 0.25 µM, the Ki (human MOR [3]) was 1.11 µM and the inhibition at 10 µM (human MOR [3]) was no less than 50%. For the same compound, the “blockade of morphine's analgesic effect against thermal-induced nociception” value ([4]; 20 mg/kg s.c. pretreatment, 30 min prior to s.c. morphine) was “complete blockade”, the “effect on pain behavior when administered alone (thermal sensitivity)” value ([4]; s.c., alone, vs. vehicle) was “did not affect pain behavior” and the “inhibition of the forskolin-stimulated cAMP production” value (human MOR [5]) was “not effective”. The “rightward shift in the concentration-response for DAMGO” value (human MOR [5]; DAMGO inhibition of forskolin-stimulated cAMP accumulation) was 3 fold and the Kb (human MOR [5]; read-out: Ke) was 8.03 ± 0.38 µM.
In the case of `COc1ccc(CC2c3cc(OC)c(OC)cc3CCN2C)cc1OC` (stereo not drawn) [Laudanosine], the Ki (μ2 receptors) is listed as 13 µM, the Ki (μ1 receptors) is listed as 2.7 µM and the antinociceptive effects (mouse tail-flick test) is listed as “exert antinociceptive effects”.
In the case of `COc1ccc(S(=O)(=O)N2CCCN(c3c(Cl)cncc3Cl)CC2)cc1OC` [Compound 5], the “stimulation of [35S]GTPγS binding” value (human MOR [2]) is reported as “none of the three ligands produced any increase”, the Ki (human MOR [3]) is reported as 7.01 µM and the inhibition at 10 µM (human MOR [3]) is reported as no less than 50%. The “inhibition of the forskolin-stimulated cAMP production” value (human MOR [5]) was “not effective”.
For `COc1ccc(C[C@H]2c3cc(O)c(OC)cc3CCN2C)cc1O` [reticuline], the “binding to the μ3 opioid receptor subtype” value [6] is given as “no binding” and the “% of morphine effects” value (MOR) is given as “ca. 16%”.
With `Cc1c(NC(=O)c2ccc(Cl)cc2)cc(-c2ccccc2)n1CCCN1CCOCC1` [Compound 3] the “stimulation of [35S]GTPγS binding” value (human MOR [2]) was “none of the three ligands produced any increase”, the Ki (human MOR [3]) was 10.7 µM and the inhibition at 10 µM (human MOR [3]) was no less than 50%. The “inhibition of the forskolin-stimulated cAMP production” value (human MOR [5]) was “not effective”.
